{
  "source": "patent US4479951A",
  "about": "“1.4;3.6-Dianhydrohexitol nitrates substituted by purine bases, processes for their preparation and pharmaceutical compositions” (Dr. Willmar Schwabe GmbH & Co., priority 1980, dated 1984)",
  "system": "mongrel dogs",
  "assay": "circulatory-pharmacological effectiveness on the narcotised dog, intravenous administration",
  "assay_type": "in vivo",
  "data": [
    {"smiles": "Nc1ncnc2c1ncn2[C@H]1CO[C@H]2[C@@H]1OC[C@@H]2O[N+](=O)[O-]", "note": "[1c/2c, 5-(9-Adenyl)-5-desoxy-1.4;3.6-dianhydro-L-iditol 2-nitrate]", "values": [
      {"measurement": "APdiast: diastolic aorta pressure", "setting": "120 min after i.v. 1 mg/kg", "result": 93.7, "unit": "mm.Hg"},
      {"measurement": "APsyst: systolic aorta pressure", "setting": "120 min after i.v. 1 mg/kg", "result": 143.4, "unit": "mm.Hg"},
      {"measurement": "BFFem: blood flow in the A. femoralis, referred to 20 kg. body weight", "setting": "120 min after i.v. 1 mg/kg", "result": 58.6, "unit": "mL/min"},
      {"measurement": "HF: heart frequency", "setting": "120 min after i.v. 1 mg/kg", "result": 98.7, "unit": "min⁻¹"},
      {"measurement": "HLL: heart capacity left, referred to 20 kg. body weight", "setting": "120 min after i.v. 1 mg/kg", "result": 0.89, "unit": "W"},
      {"measurement": "HLR: heart capacity right, referred to 20 kg. body weight", "setting": "120 min after i.v. 1 mg/kg", "result": 98.7, "unit": "mW"},
      {"measurement": "HZV: heart minute volume, referred to 20 kg. body weight", "setting": "120 min after i.v. 1 mg/kg", "result": 3.85, "unit": "L/min"},
      {"measurement": "LVEDP: end diastolic pressure in the left ventricle", "setting": "120 min after i.v. 1 mg/kg", "result": 6.37, "unit": "mm.Hg"},
      {"measurement": "PAP: average pressure in the A. pulmonalis", "setting": "120 min after i.v. 1 mg/kg", "result": "15.1 ±2.3", "unit": "mm.Hg"},
      {"measurement": "PRA: pressure in the right atrium", "setting": "120 min after i.v. 1 mg/kg", "result": 3.94, "unit": "mm.Hg"},
      {"measurement": "SV: beat volume, referred to 20 kg. body weight", "setting": "120 min after i.v. 1 mg/kg", "result": 40.0, "unit": "mL"},
      {"measurement": "WAP: pulmonalis resistance, referred to 20 kg. body weight", "setting": "120 min after i.v. 1 mg/kg", "result": 0.30, "unit": "U"},
      {"measurement": "WFem: femoralis resistance, referred to 20 kg. body weight", "setting": "120 min after i.v. 1 mg/kg", "result": 0.25, "unit": "KU"},
      {"measurement": "WTP: total peripheral resistance, referred to 20 kg. body weight", "setting": "120 min after i.v. 1 mg/kg", "result": 3.72, "unit": "U"},
      {"measurement": "dp/dt: rate of pressure increase in the left ventricle", "setting": "120 min after i.v. 1 mg/kg", "result": 2043.7, "unit": "mm.Hg/sec."},
      {"measurement": "APdiast: diastolic aorta pressure", "setting": "150 min after i.v. 1 mg/kg", "result": 94.7, "unit": "mm.Hg"},
      {"measurement": "APsyst: systolic aorta pressure", "setting": "150 min after i.v. 1 mg/kg", "result": 147.2, "unit": "mm.Hg"},
      {"measurement": "BFFem: blood flow in the A. femoralis, referred to 20 kg. body weight", "setting": "150 min after i.v. 1 mg/kg", "result": 58.2, "unit": "mL/min"},
      {"measurement": "HF: heart frequency", "setting": "150 min after i.v. 1 mg/kg", "result": 97.5, "unit": "min⁻¹"},
      {"measurement": "HLL: heart capacity left, referred to 20 kg. body weight", "setting": "150 min after i.v. 1 mg/kg", "result": 0.91, "unit": "W"},
      {"measurement": "HLR: heart capacity right, referred to 20 kg. body weight", "setting": "150 min after i.v. 1 mg/kg", "result": 98.0, "unit": "mW"},
      {"measurement": "HZV: heart minute volume, referred to 20 kg. body weight", "setting": "150 min after i.v. 1 mg/kg", "result": 3.89, "unit": "L/min"},
      {"measurement": "LVEDP: end diastolic pressure in the left ventricle", "setting": "150 min after i.v. 1 mg/kg", "result": 6.97, "unit": "mm.Hg"},
      {"measurement": "PAP: average pressure in the A. pulmonalis", "setting": "150 min after i.v. 1 mg/kg", "result": "15.1 ±1.5", "unit": "mm.Hg"},
      {"measurement": "PRA: pressure in the right atrium", "setting": "150 min after i.v. 1 mg/kg", "result": 4.03, "unit": "mm.Hg"},
      {"measurement": "SV: beat volume, referred to 20 kg. body weight", "setting": "150 min after i.v. 1 mg/kg", "result": 41.0, "unit": "mL"},
      {"measurement": "WAP: pulmonalis resistance, referred to 20 kg. body weight", "setting": "150 min after i.v. 1 mg/kg", "result": 0.27, "unit": "U"},
      {"measurement": "WFem: femoralis resistance, referred to 20 kg. body weight", "setting": "150 min after i.v. 1 mg/kg", "result": 0.26, "unit": "KU"},
      {"measurement": "WTP: total peripheral resistance, referred to 20 kg. body weight", "setting": "150 min after i.v. 1 mg/kg", "result": 3.73, "unit": "U"},
      {"measurement": "dp/dt: rate of pressure increase in the left ventricle", "setting": "150 min after i.v. 1 mg/kg", "result": 1950.0, "unit": "mm.Hg/sec."},
      {"measurement": "APdiast: diastolic aorta pressure", "setting": "180 min after i.v. 1 mg/kg", "result": 91.9, "unit": "mm.Hg"},
      {"measurement": "APsyst: systolic aorta pressure", "setting": "180 min after i.v. 1 mg/kg", "result": 143.4, "unit": "mm.Hg"},
      {"measurement": "BFFem: blood flow in the A. femoralis, referred to 20 kg. body weight", "setting": "180 min after i.v. 1 mg/kg", "result": 59.4, "unit": "mL/min"},
      {"measurement": "HF: heart frequency", "setting": "180 min after i.v. 1 mg/kg", "result": 95.5, "unit": "min⁻¹"},
      {"measurement": "HLL: heart capacity left, referred to 20 kg. body weight", "setting": "180 min after i.v. 1 mg/kg", "result": 0.91, "unit": "W"},
      {"measurement": "HLR: heart capacity right, referred to 20 kg. body weight", "setting": "180 min after i.v. 1 mg/kg", "result": 98.5, "unit": "mW"},
      {"measurement": "HZV: heart minute volume, referred to 20 kg. body weight", "setting": "180 min after i.v. 1 mg/kg", "result": 4.03, "unit": "L/min"},
      {"measurement": "LVEDP: end diastolic pressure in the left ventricle", "setting": "180 min after i.v. 1 mg/kg", "result": 7.69, "unit": "mm.Hg"},
      {"measurement": "PAP: average pressure in the A. pulmonalis", "setting": "180 min after i.v. 1 mg/kg", "result": "14.9 ±1.3", "unit": "mm.Hg"},
      {"measurement": "PRA: pressure in the right atrium", "setting": "180 min after i.v. 1 mg/kg", "result": 4.12, "unit": "mm.Hg"},
      {"measurement": "SV: beat volume, referred to 20 kg. body weight", "setting": "180 min after i.v. 1 mg/kg", "result": 42.6, "unit": "mL"},
      {"measurement": "WAP: pulmonalis resistance, referred to 20 kg. body weight", "setting": "180 min after i.v. 1 mg/kg", "result": 0.24, "unit": "U"},
      {"measurement": "WFem: femoralis resistance, referred to 20 kg. body weight", "setting": "180 min after i.v. 1 mg/kg", "result": 0.24, "unit": "KU"},
      {"measurement": "WTP: total peripheral resistance, referred to 20 kg. body weight", "setting": "180 min after i.v. 1 mg/kg", "result": 3.51, "unit": "U"},
      {"measurement": "dp/dt: rate of pressure increase in the left ventricle", "setting": "180 min after i.v. 1 mg/kg", "result": 1593.7, "unit": "mm.Hg/sec."},
      {"measurement": "APdiast: diastolic aorta pressure", "setting": "before i.v. 1 mg/kg (v)", "result": 88.1, "unit": "mm.Hg"},
      {"measurement": "APsyst: systolic aorta pressure", "setting": "before i.v. 1 mg/kg (v)", "result": 150.9, "unit": "mm.Hg"},
      {"measurement": "BFFem: blood flow in the A. femoralis, referred to 20 kg. body weight", "setting": "before i.v. 1 mg/kg (v)", "result": 53.4, "unit": "mL/min"},
      {"measurement": "HF: heart frequency", "setting": "before i.v. 1 mg/kg (v)", "result": 97.5, "unit": "min⁻¹"},
      {"measurement": "HLL: heart capacity left, referred to 20 kg. body weight", "setting": "before i.v. 1 mg/kg (v)", "result": 0.83, "unit": "W"},
      {"measurement": "HLR: heart capacity right, referred to 20 kg. body weight", "setting": "before i.v. 1 mg/kg (v)", "result": 96.0, "unit": "mW"},
      {"measurement": "HZV: heart minute volume, referred to 20 kg. body weight", "setting": "before i.v. 1 mg/kg (v)", "result": 3.61, "unit": "L/min"},
      {"measurement": "LVEDP: end diastolic pressure in the left ventricle", "setting": "before i.v. 1 mg/kg (v)", "result": 5.53, "unit": "mm.Hg"},
      {"measurement": "PAP: average pressure in the A. pulmonalis", "setting": "before i.v. 1 mg/kg (v)", "result": "15.8 ±1.4", "unit": "mm.Hg"},
      {"measurement": "PRA: pressure in the right atrium", "setting": "before i.v. 1 mg/kg (v)", "result": 3.94, "unit": "mm.Hg"},
      {"measurement": "SV: beat volume, referred to 20 kg. body weight", "setting": "before i.v. 1 mg/kg (v)", "result": 38.3, "unit": "mL"},
      {"measurement": "WAP: pulmonalis resistance, referred to 20 kg. body weight", "setting": "before i.v. 1 mg/kg (v)", "result": 0.38, "unit": "U"},
      {"measurement": "WFem: femoralis resistance, referred to 20 kg. body weight", "setting": "before i.v. 1 mg/kg (v)", "result": 0.28, "unit": "KU"},
      {"measurement": "WTP: total peripheral resistance, referred to 20 kg. body weight", "setting": "before i.v. 1 mg/kg (v)", "result": 3.94, "unit": "U"},
      {"measurement": "dp/dt: rate of pressure increase in the left ventricle", "setting": "before i.v. 1 mg/kg (v)", "result": 2081.2, "unit": "mm.Hg/sec."}
    ]}
  ]
}
